Like-named read-outs stand apart in the source and are kept apart here.
What was measured:
U87 cells = assay: Intracellular uptake by ICP-MS, cancer cells; assay type: cell-based, human; conditions: 200 uM photosensitizer, 0.8 mg/mL transferrin, 4 hours
Experimental: Cell culture (U87 cells) was exposed to 200 uM of the photosensitizer without additional transferrin and in the presence of 0.8 mg/mL transferrin for 4 hours. The incubation mix was washed away and the cells were collected, counted, and lysed. Lysed solution was dissolved in nitric acid and appropriate metals concentration was measured using inductively coupled plasma mass spectrometry. The metals concentration is directly proportional to the concentration of the photosensitizer.

AY27 cancer cell line [1] = assay: In vitro dark toxicity, Presto Blue cell kill; assay type: cell-based; conditions: 0.4 mg/mL human transferrin, 30 minutes
Experimental: (§1) The photosensitizer was pre-mixed with 0.4 mg/mL human transferrin and incubated for 1 hour at 37° C. In control group (no additional transferrin), equivalent volume of no-transferrin medium was added. The cells were subsequently incubated with the pre-mixes for 30 minutes (FIG. 12A) or 90 minutes (FIG. 12B). After that, the medium was replaced with a fresh one (without photosensitizer and transferrin). On the next day (21 hours post-irradiation), viability of the cells was measured using Presto Blue viability assay, and percent of cell kill was calculated.
as §1, with “minutes.” for “minutes (FIG. 12A) or 90 minutes (FIG. 12B).”

Subcutaneous tumors = assay: In vivo PDT of subcutaneous tumors in mouse thighs
Experimental: Subcutaneous tumors were grown in mouse thighs and PDT (808 nm, 600 Jcm^−2) was performed when tumor reached 5×5 mm in size. Mice were sacrificed if tumor continued to grow after PDT treatment and reached 10×10 mm.
Subcutaneous tumors were grown in mouse thighs and PDT (635 nm, 192 Jcm^−2) was performed when tumor reached 5×5 mm in size. Mice were sacrificed if tumor continued to grow after PDT treatment and reached 10×10 mm.
Subcutaneous tumors were grown in mouse thighs and PDT (525 nm, 90 Jcm^−2) was performed when tumor reached 5×5 mm in size. Mice were sacrificed if tumor continued to grow after PDT treatment and reached 10×10 mm.

[2] = In vivo tissue uptake, tumor versus muscle; conditions: 10 mg/kg i.v.; transferrin 1 mg/kg
Experimental: Transferrin was dissolved in 40% PG in phosphate buffer (pH=7.0)+100 mM NaCl (0.1 mg/100 uL) and added to the photosensitizer solution (to achieve 10 mg/kg dose). The mixture was incubated for 1 hour prior to injection, and 100 uL of the mixture was injected i.v. to each animal.

AY27 cancer cell line [3] = assay: In vitro PDT effect, Presto Blue cell kill; assay type: cell-based; conditions: 90 J cm−2, 0.4 mg/mL human transferrin, 30 minutes
Experimental: The photosensitizer was pre-mixed with 0.4 mg/mL human transferrin and incubated for 1 hour at 37° C. In control group (no additional transferrin), equivalent volume of no-transferrin medium was added. The cells were subsequently incubated with the pre-mixes for 30 minutes (FIG. 14A) or 90 minutes (FIG. 14B). After that, the medium was replaced with a fresh one (without photosensitizer and transferrin) and the cells were irradiated. On the next day (21 hours post-irradiation), viability of the cells was measured using Presto Blue viability assay, and percent of cell kill was calculated. The PDT effect shown is a result of subtraction of “photosensitizer alone” and “light alone” cell kill from the total PDT cell kill.
as §1, with “minutes.” for “minutes (FIG. 12A) or 90 minutes (FIG. 12B).”, “transferrin) and the cells were irradiated.” for “transferrin).”, “calculated. […]” for “calculated.”

With `[Os+2].c1ccc2cc3nc4c5cccnc5c5ncccc5c4nc3cc2c1.c1ccc2nc(-c3ccc4ccccc4n3)ccc2c1.c1ccc2nc(-c3ccc4ccccc4n3)ccc2c1` [TLDOsH2dppn] the “Therapeutic Ratio” value (AY27 cells; 530 nm, 90 J cm−2, no transferrin) was 1639.8, the “Therapeutic Ratio” value (AY27 cells; 530 nm, 90 J cm−2, transferrin) was 5531.9 and the “Therapeutic Ratio” value (AY27 cells; 650 nm, 90 J cm−2, no transferrin) was 28.7. For the same compound, the “Therapeutic Ratio” value (AY27 cells; 650 nm, 90 J cm−2, transferrin) was 61.7, the “uptake into cancer cells, effect of transferrin” value (U87 cells) was “transferrin facilitated uptake” and the “dark toxicity, effect of transferrin” value (AY27 cancer cell line [1]) was “decreases dark toxicity”. For the same compound, the “Survival by day 80” value (Subcutaneous tumors; PDT 525 nm, 90 Jcm−2, with transferrin) was 78%, the “Survival by day 80” value (Subcutaneous tumors; PDT 525 nm, 90 Jcm−2, without transferrin) was 37% and the “Survival by day 80” value (Subcutaneous tumors; PDT 635 nm, 192 Jcm−2, with transferrin) was 75%. For the same compound, the “Survival by day 80” value (Subcutaneous tumors; PDT 635 nm, 192 Jcm−2, without transferrin) was 35%, the “Survival by day 80” value (Subcutaneous tumors; PDT 808 nm, 600 Jcm−2, with transferrin) was 80% and the “Survival by day 80” value (Subcutaneous tumors; PDT 808 nm, 600 Jcm−2, without transferrin) was 40%. The “uptake of the photosensitizer into tissues, effect of transferrin” value [2] was “increases uptake”, the “PDT effect, effect of transferrin” value (AY27 cancer cell line [3]; 530 nm) was “increases PDT effect” and the “PDT effect, effect of transferrin” value (AY27 cancer cell line [3]; 635 nm) was “increases PDT effect”.
